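Step 1: Grow cells in 96-well plates. Step 2: Expose to compound for 48 hours at 5 concentrations. Step 3: Interpolate endpoints linearly; if unreached, use highest concentration. GI50 = concentration required for 50% inhibition of growth.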 Active and inactive are the calls of the source. No stated cut-off is given here; in the data, active = GI50 up to about 1.1 µM and inactive = higher.
Columns and labels:
Test in all cases: inhibition of tumour cell growth, NCI panel, 48 h
[1] = test system: HL-60
[2] = test system: HCC 2998
[3] = test system: NCI-H226
[4] = test system: Hs-578T
[5] = test system: EKVX
[6] = test system: A498
[7] = test system: NCI-H23
[8] = test system: CAKI-1
[9] = test system: OVCAR-5
[10] = test system: U-251
[11] = test system: SF-268
[12] = test system: NCI-H522
[13] = test system: SN12C
[14] = test system: HCT-15
[15] = test system: MOLT-4
[16] = test system: SF-295
[17] = test system: Malme-3M
[18] = test system: LOX IMVI
[19] = test system: HCT-116
[20] = test system: MDA-MB-231

Row | SMILES | GI50 [1] | GI50 [2] | GI50 [3] | GI50 [4] | GI50 [5] | GI50 [6] | GI50 [7] | GI50 [8] | GI50 [9] | GI50 [10] | GI50 [11] | GI50 [12] | GI50 [13] | GI50 [14] | GI50 [15] | GI50 [16] | GI50 [17] | GI50 [18] | GI50 [19] | GI50 [20]
1 | COc1ccc(C2c3cc4c(cc3OC(N3CCOCC3)C2C)OCO4)c(OC)c1 (stereo unspecified) | 2.7 µM (inactive) | 4.17 µM (inactive) | 3.72 µM (inactive) | 1.97 µM (inactive) | 13.9 µM (inactive) | 4.68 µM (inactive) | 11.9 µM (inactive) | 4.47 µM (inactive) | 19.1 µM (inactive) | 4.09 µM (inactive) | 6.95 µM (inactive) | 2.68 µM (inactive) | 10.7 µM (inactive) | 4.34 µM | 3.58 µM (inactive) | 3.48 µM (inactive) | 5.11 µM (inactive) | 4.27 µM (inactive) | 3.77 µM (inactive) | 8.69 µM (inactive)
2 | CC(=O)OC(C)C1C2=C(C(=O)CC1(C)O)C(=O)c1c(ccc(-c3ccc4c(c3O)C(=O)C3=C(C4=O)C(C(C)OC(C)=O)C(C)(O)CC3=O)c1O)C2=O (stereo unspecified) | 0.398 µM (active) | 10.7 µM (inactive) | 9.33 µM (inactive) | 2.11 µM (inactive) | 4.36 µM (inactive) | 2.86 µM (inactive) | 1.47 µM (inactive) | 2.82 µM (inactive) | 5.97 µM (inactive) | 1.72 µM (inactive) | 2.95 µM (inactive) | 1.56 µM (inactive) | 2.82 µM (inactive) | 2.58 µM | 1.12 µM (inactive) | 11.6 µM (inactive) | 0.724 µM (active) | 1.42 µM (inactive) | 0.521 µM (active) | 2.42 µM (inactive)
3 | O=Cc1[nH]c(=O)[nH]c(=O)c1CCl | 38 µM (inactive) | > 100 µM (inactive) | > 100 µM (inactive) | > 100 µM (inactive) | > 100 µM (inactive) | > 100 µM (inactive) | > 100 µM (inactive) | > 100 µM (inactive) | > 100 µM (inactive) | > 61 µM (inactive) | > 59.3 µM (inactive) | > 100 µM (inactive) | > 100 µM (inactive) | > 65.8 µM | > 96.8 µM (inactive) | > 100 µM (inactive) | > 100 µM (inactive) | 30 µM (inactive) | 50.5 µM (inactive) | > 100 µM (inactive)
4 | O=C1/C(=N/O)Cc2c(Br)ccc(Br)c21 | 26.9 µM (inactive) | 24.2 µM (inactive) | 68.1 µM (inactive) | 37.8 µM (inactive) | 28.2 µM (inactive) | 68.1 µM (inactive) | 58.7 µM (inactive) | 42.4 µM (inactive) | > 100 µM (inactive) | 39.6 µM (inactive) | 35.2 µM (inactive) | 27.5 µM (inactive) | – | 33.7 µM | 25.4 µM (inactive) | 34.6 µM (inactive) | – | 31.9 µM (inactive) | 55.1 µM (inactive) | 46.9 µM (inactive)
5 | CC1C(O)Oc2cc3c(cc2C1c1ccccc1O)OCO3 (stereo unspecified) | 17.9 µM (inactive) | 38.5 µM (inactive) | 18.6 µM (inactive) | 11.5 µM (inactive) | 43.6 µM (inactive) | 29.6 µM (inactive) | 46.1 µM (inactive) | 29.2 µM (inactive) | 45.7 µM (inactive) | 37.8 µM (inactive) | 36.1 µM (inactive) | 17.1 µM (inactive) | 39.2 µM (inactive) | 33.1 µM | 19.3 µM (inactive) | 21.2 µM (inactive) | 25.3 µM (inactive) | 31.6 µM (inactive) | 17.9 µM (inactive) | 34.6 µM (inactive)
6 | Cc1ccc(Cl)c2[nH]c(-c3ccccc3)cc(=O)c12 | 23 µM (inactive) | 93.1 µM (inactive) | 31.3 µM (inactive) | 59.2 µM (inactive) | 6.41 µM (inactive) | 25.6 µM (inactive) | 46.7 µM (inactive) | – | 76.4 µM (inactive) | 77.8 µM (inactive) | 14.8 µM (inactive) | 57.1 µM (inactive) | 46.5 µM (inactive) | 39.2 µM | 21.6 µM (inactive) | 63.5 µM (inactive) | > 100 µM (inactive) | 22.5 µM (inactive) | 29.2 µM (inactive) | 38.9 µM (inactive)
7 | CC(=O)c1ccc2c(c1)CC1(C2)Cc2ccc3c(c2C1=O)CCC3 (stereo unspecified) | 8.26 µM (inactive) | 15 µM (inactive) | 19 µM (inactive) | 31.5 µM (inactive) | – | 39.3 µM (inactive) | 31.2 µM (inactive) | 23.2 µM (inactive) | 36.8 µM (inactive) | 34.8 µM (inactive) | 31.2 µM (inactive) | 19.1 µM (inactive) | 31.8 µM (inactive) | 25 µM | 14.9 µM (inactive) | 31 µM (inactive) | 18 µM (inactive) | 24.5 µM (inactive) | 28.3 µM (inactive) | 35.6 µM (inactive)

From ChEMBL document CHEMBL1201862, “PubChem BioAssay data set” (2004)
